Assay results reported in patent US10358454B2, “Marinopyrrole derivatives and methods of making and using same” (H. LEE MOFFITT CANCER CENTER AND RESEARCH INSTITUTE, INC., priority 2014, dated 2019).
“Also recorded” adds a separate entry of the source. Like-named read-outs stand apart in the source and are kept apart here. Values belong to the compound of their own block, whether it stands above or below them.

Tests used:
[1] = pKa and log p calculated using ChemAxon Software Version 5.12.3; settings: difference to phenol pKa […]
Protocol: Both pKa and log p values were calculated using ChemAxon Software Version 5.12.3 (Dixon S L and Jurs P C. J. Comp. Chem. 1993, 14, 1460-1467; Csizmadia F et al. J. Pharm. Sci. 1997, 86, 865-871).

[2] = Stability in 1 M NaOH at room temperature, HPLC analysis
[3] = target: Bcl-xL/Bim (Homo sapiens, UniProt Q07817); experiment: Bcl-xL/Bim ELISA (GST-Bcl-xL binding to biotinylated Bim BH3 peptide)
Protocol: (§1) ELISAs were performed using a modified version of a previously described procedure (Doi K et al. J. Biol. Chem. 2012, 287, 10224-10235). Briefly, 40 nM of biotinylated Bim BH3 peptide (Biomatik) in SuperBlock blocking buffer (Pierce) was incubated in high-binding capacity streptavidin-coated plates (Pierce) for 2 h. Compounds were diluted in 120 μl of PBS containing 10 nM of GST-Mcl-1 or GST-Bcl-xL in 1.5 mL tubes for 15 min. Wells were washed with wash buffer (PBS containing 0.05% Tween-20) and then 100 μL of the compound/GST-protein mixture was transferred to the wells. The plates were incubated for 2 h, and then the wells were washed with wash buffer. HRP-conjugated anti-GST antibody (Bethyl Laboratories) was diluted 1:2000 in SuperBlock and 100 μL was transferred to each well. The plate was incubated for 1 h, and then the wells were washed with wash buffer followed by PBS. 100 μL of SureBlue TMB Microwell Peroxidase Substrate (VWR) was added to each well and plates were developed for 5-10 min. 100 μL of 1 N HCl was added to each well to stop the reaction and absorbance was read at 450 nm using a μQuant plate reader (Bio-Tek).
(§2) ELISAs were performed using a similar procedure as previously described (Doi K, et al. J. Biol. Chem. 2012, 287, 10224-10235). Briefly, 40 nM of biotinylated Bim BH3 peptide (Biomatik) in SuperBlock blocking buffer (Pierce) was incubated in high-binding capacity streptavidin-coated plates (Pierce) for 2 h. Compounds were diluted in 120 μl of PBS containing 10 nM of GST-Mcl-1 or GST-Bcl-xL in 1.5 mL tubes for 15 min. Wells were washed with wash buffer (PBS containing 0.05% Tween-20) and then 100 μL of the compound/GST-protein mixture was transferred to the wells. The plates were incubated for 2 h, and then wells were washed with wash buffer. HRP-conjugated anti-GST antibody (Bethyl Laboratories) was diluted 1:2000 in SuperBlock and 100 μL was transferred to each well. The plate was incubated for 1 h, and then wells were washed with wash buffer followed by PBS. 100 μL of SureBlue TMB Microwell Peroxidase Substrate (VWR) was added to each well and plates were developed for 5-10 min. 100 μL of 1 N HCl was added to each well to stop the reaction and absorbance was read at 450 nm using μQuant plate reader (Bio-Tek).

[4] = test system: human breast cancer MDA-MB-468 cells; experiment: Western blotting of MDA-MB-468 cells treated with marinopyrrole derivatives (Mcl-1, Bim, caspase 3); type: cell-based; settings: 10 μM for 16 h
Protocol: The cells were then processed for western blotting according to a previously described methods (Balasis M E et al. Clin. Cancer Res. 2011, 17, 2852-2862). […] However, none of the cyclic marinopyrroles were active in intact cells.
as §1

[5] = Solubility; settings: aqueous solubility
[6] = target: Mcl-1/Bim (Homo sapiens, UniProt Q07820); experiment: Mcl-1/Bim ELISA (GST-Mcl-1 binding to biotinylated Bim BH3 peptide); settings: for selectivity for Mcl-1 over Bcl-xL (Mcl-1/Bim over Bcl-xL/Bim): ratio of ELISA IC50 values; for selectivity profile Mcl-1 vs Bcl-xL in words: from Mcl-1/Bim and Bcl-xL/Bim ELISA
Protocol: as §1, §2

[7] = test system: cultured human cancer cells; experiment: Induction of apoptosis in cultured human cancer cells; type: cell-based; settings: intact cell studies
[8] = target: T1, Mcl-1 (Homo sapiens, UniProt Q07820); experiment: 15N-HSQC NMR chemical shift perturbation with docking; type: binding; parameters: MBP (cleaved yes); made in house; host or cells: E. coli BL21(DE3) Codon+; settings: HSQC chemical shift changes
Protocol: ^15N-HSQC spectra were recorded on ^15N-labelled Mcl-1 at 0.1 mM prepared in 50 mM potassium phosphate solution at pH 6.5, 50 mM NaCl and 1 mM DTT. Titrations up to 100 μM of 1-21 and 1-18 compounds were performed. NMR spectra were acquired at 25° C. on an Inova 600 MHz spectrometer equipped with a cryoprobe and analyzed in CCPNMR (Vranken W F, et al. Proteins. 2005, 59, 687-696).
NMR-guided docking of 1-21 into the X-ray crystal structure of Mcl-1 (PDB ID: 3KJ0) was performed using Glide (Maestro, Schrodinger) (Friesner R A et al. J. Med. Chem. 2004, 47, 1739-1749; Friesner R A, et al. J. Med. Chem. 2006, 49, 6177-6196; Halgren T A, et al. J. Med. Chem. 2004, 47, 1750-1759; Gavathiotis E, et al. Nat. Chem. Biol. 2012, 8, 639-645). The lowest-energy docking pose is consistent with the observed NMR-chemical shift perturbation data. Pymol is used for preparing the highlighted poses.
Structural characterization of I-20 and II-4 was performed using NMR. HSQC spectra were collected at different ratios of compound:Mcl-1. […] The residues that undergo chemical shift changes upon compounds' binding onto the structure of Mcl-1 and the compounds' binding location were mapped (FIG. 6B). An induced fit molecular docking approach guided by the NMR chemical shifts was used to determine the structural models of the compounds bound to Mcl-1 using Glide software (Schrodinger; FIG. 6C). […]
Target sequence in this assay (Q07820 172-327): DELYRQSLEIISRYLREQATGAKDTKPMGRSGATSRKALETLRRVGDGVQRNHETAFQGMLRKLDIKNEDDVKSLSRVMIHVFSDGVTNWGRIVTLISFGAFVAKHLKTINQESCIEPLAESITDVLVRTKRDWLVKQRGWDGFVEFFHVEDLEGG

[9] = target: T1, Mcl-1; experiment: Fluorescence-quenching (FQ) assay based on intrinsic Trp fluorescence of Mcl-1; type: binding; settings: for Kd: binding isotherms, read-out: Kd (binding constant)
From the text: To investigate direct binding of compounds to Mcl-1, a fluorescence-quenching (FQ) assay based on the intrinsic Trp fluorescence of Mcl-1 was established.
Target sequence in this assay (Q07820 whole entry): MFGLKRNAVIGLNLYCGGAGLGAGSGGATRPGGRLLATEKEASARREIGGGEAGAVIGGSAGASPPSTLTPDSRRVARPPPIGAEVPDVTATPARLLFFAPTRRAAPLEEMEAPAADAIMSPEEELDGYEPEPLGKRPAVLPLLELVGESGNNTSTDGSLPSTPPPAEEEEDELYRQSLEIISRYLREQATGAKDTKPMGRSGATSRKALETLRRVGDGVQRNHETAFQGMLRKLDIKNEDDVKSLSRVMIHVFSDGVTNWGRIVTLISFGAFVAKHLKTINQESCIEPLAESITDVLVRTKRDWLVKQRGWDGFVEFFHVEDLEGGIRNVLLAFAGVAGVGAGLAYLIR

[10] = Table 2-A, n ≥ 3, read-out: Bcl-xL/Bim IC50 (average ± SEM)
[11] = Table 2-B, n ≥ 3 unless specified, read-out: Bcl-xL/Bim IC50 (average ± SEM)
[12] = Table 3-A structure I, Bcl-xL at 10 nM, n ≥ 3, read-out: Bcl-xL-Bim IC50 (average ± SEM)
[13] = read-out: IC50 to inhibit Bcl-xL/Bim binding
[14] = Table 2-A, n ≥ 3, read-out: Mcl-1/Bim IC50 (average ± SEM)
[15] = Table 2-B, n ≥ 3, read-out: Mcl-1/Bim IC50 (average ± SEM)
[16] = Table 3-A structure I, Mcl-1 at 10 nM, n ≥ 3, read-out: Mcl-1-Bim IC50 (average ± SEM)
[17] = read-out: IC50 to inhibit the binding of Mcl-1 to Bim

Sequence of Mcl-1/Bim (Q07820 whole entry): as above
Sequence of Bcl-xL/Bim (Q07817 whole entry): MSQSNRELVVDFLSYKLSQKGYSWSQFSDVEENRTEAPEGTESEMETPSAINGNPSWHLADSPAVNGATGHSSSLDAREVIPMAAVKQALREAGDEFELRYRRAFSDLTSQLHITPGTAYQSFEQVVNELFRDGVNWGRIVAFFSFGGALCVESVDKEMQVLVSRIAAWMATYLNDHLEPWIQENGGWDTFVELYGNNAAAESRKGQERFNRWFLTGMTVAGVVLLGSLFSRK

Structure (SMILES): O=C(c1ccccc1O)c1[nH]c(Cl)c(Cl)c1-n1c(C(=O)c2ccccc2O)cc(Cl)c1Cl (racemic) [(±)-1, (±)-marinopyrrole A, reference compound]
pKa values lower than that of phenol [1]: 1.6-2.2 log units
stability in words ([2]; 1 to 48 hours): highly stable
remained intact ([2]; after 48 hours): 76%
IC50 ([3]; Table 1, Bcl-xL at 10 nM, n ≥ 3, read-out: Bcl-xL-Bim IC50 (average ± SEM)): 16.4 ± 3.3 µM
IC50 [3, 10]: 16.4 ± 3.3 µM
IC50 [3, 11]: 16.4 ± 3.3 µM
IC50 [3, 12]: 16.4 ± 3.3 µM
IC50 [3, 13]: 16.4 µM
effect on levels of Mcl-1 and Bim and cleavage of caspase 3 [4]: able to decrease Mcl-1 and Bim and to cleave caspas 3
solubility in words [5]: poor solubility
IC50 ([6]; Table 1, Mcl-1 at 10 nM, n ≥ 3, read-out: Mcl-1-Bim IC50 (average ± SEM)): 8.9 ± 1 µM
IC50 [6, 14]: 8.9 ± 1 µM
IC50 [6, 15]: 8.9 ± 1 µM
IC50 [6, 16]: 8.9 ± 1 µM
selectivity for Mcl-1 over Bcl-xL (Mcl-1/Bim over Bcl-xL/Bim) [6]: 1.8 fold
selectivity for Mcl-1 over Bcl-xL (Mcl-1/Bim over Bcl-xL/Bim) ([6]; listed as marinopyrrole A): two fold
IC50 [6, 17]: 8.9 µM

selectivity profile Mcl-1 vs Bcl-xL in words [6]: dual Mcl-1 and Bcl-XL antagonists
Structure (SMILES): C=Cc1ccc(C(=O)c2[nH]c(Cl)c(Cl)c2-n2c(C(=O)c3ccc(C=C)cc3O)cc(Cl)c2Cl)c(O)c1 [Compound 1-4, (4,4′,5,5′-Tetrachloro-1′H-1,3′-bipyrrole-2,2′-diyl)bis((2-hydroxy-4-vinylphenyl)methanone)]
induction of apoptosis [7]: induced apoptosis

IC50 [3, 11]: 3.9 ± 1.2 µM
IC50 [3, 12]: 3.9 ± 1.3 µM
IC50 [6, 15]: 2.1 ± 0.5 µM
IC50 [6, 16]: 2.1 ± 0.5 µM
selectivity profile Mcl-1 vs Bcl-xL in words [6]: dual Mcl-1 and Bcl-XL antagonists
IC50 [6, 17]: 2.1 µM
Structure (SMILES): CCc1ccc(C(=O)c2[nH]c(Cl)c(Cl)c2-n2c(C(=O)c3ccc(CC)cc3O)cc(Cl)c2Cl)c(O)c1 [Compound 1-5, (4,4′,5,5′-Tetrachloro-1′H-1,3′-bipyrrole-2,2′-diyl)bis((4-ethyl-2-hydroxyphenyl)methanone)]
induction of apoptosis [7]: induced apoptosis

direct binding to Mcl-1 by fluorescence quenching [9]: directly bind to Mcl-1
Kd [9]: 2.5 µM
activity against Bcl-xL/Bim in words [3]: not active
IC50 [3, 10]: > 50 µM
IC50 ([3]; Table 3-B structure II, n ≥ 3, read-out: Bcl-xL-Bim IC50 (average ± SEM)): > 50 µM
IC50 [6, 14]: 5.2 ± 0.8 µM
IC50 ([6]; Table 3-B structure II, n ≥ 3, read-out: Mcl-1-Bim IC50 (average ± SEM)): 5.2 ± 0.8 µM
selectivity for Mcl-1 over Bcl-xL (Mcl-1/Bim over Bcl-xL/Bim) [6]: 9.6 fold
IC50 [6, 17]: 5.2 µM
Structure (SMILES): O=C(O)Cn1cc(-c2cc(O)c(C(=O)c3[nH]c(Cl)c(Cl)c3-n3c(C(=O)c4cc(Cl)c(-c5cn(CC(=O)O)nn5)cc4O)cc(Cl)c3Cl)cc2Cl)nn1 [Compound 1-19, 2,2′-(4,4′-((4,4′,5,5′-Tetrachloro-1′H-1,3′-bipyrrole-2,2′-dicarbonyl)bis(2-chloro-5-hydroxy-4,1-phenylene))bis(1H-1,2,3-triazole-4,1-diyl))diacetic acid]
binding to Mcl-1 by NMR ([8]; listed as II-4): binding to the BH3 pocket of Mcl-1; also recorded: confirmed binding to Mcl-1

IC50 [3, 12]: > 100 µM
solubility in words [5]: improvement in aqueous solubility
IC50 [6, 16]: 61.4 ± 7.6 µM
Structure (SMILES): O=C(O)c1ccc(C(=O)c2[nH]c(Cl)c(Cl)c2-n2c(C(=O)c3ccc(C(=O)O)cc3O)cc(Cl)c2Cl)c(O)c1 [Compound I-18, 4,4′-(4,4′,5,5′-Tetrachloro-1′H-[1,3′-bipyrrole]-2,2′-dicarbonyl)bis(3-hydroxybenzoic acid)]
activity against Bcl-xL/Bim in words ([3]; listed as 7a): little activity; also recorded: less active
effect on levels of Mcl-1 and Bim and cleavage of caspase 3 [4]: did not decrease Mcl-1 and Bim, and resulted in little caspase 3 cleavage
activity against Mcl-1/Bim in words ([6]; listed as 7a): lower activity than 1; also recorded: less active

direct binding to Mcl-1 by fluorescence quenching [9]: directly bind to Mcl-1
Kd [9]: 3.5 µM
activity against Bcl-xL/Bim in words [3]: less active
IC50 [3, 12]: 27.3 ± 7.2 µM
solubility in words [5]: improvement in aqueous solubility
IC50 [6, 16]: 10.9 ± 3.1 µM
Structure (SMILES): O=C(c1ccc(P(=O)(O)O)cc1O)c1[nH]c(Cl)c(Cl)c1-n1c(C(=O)c2ccc(P(=O)(O)O)cc2O)cc(Cl)c1Cl [Compound I-20, ((4,4′,5,5′-Tetrachloro-1′H-[1,3′-bipyrrole]-2,2′-dicarbonyl)bis(3-hydroxy-4,1-phenylene))diphosphonic acid]
binding to Mcl-1 by NMR [8]: binding to the BH3 pocket of Mcl-1; also recorded: confirmed binding to Mcl-1
effect on levels of Mcl-1 and Bim and cleavage of caspase 3 [4]: little effect on Mcl-1, Bim or caspase 3
activity against Mcl-1/Bim in words ([6]; listed as 8a): slightly less potent than 1; also recorded: less active

selectivity for Mcl-1 over Bcl-xL (Mcl-1/Bim over Bcl-xL/Bim) [6]: 4.2 fold
Structure (SMILES): COc1ccccc1C(=O)c1c(-n2c(C(=O)c3ccccc3OC)cc(Cl)c2Cl)c(Cl)c(Cl)n1C [VI-11]
induction of apoptosis [7]: induced apoptosis

selectivity for Bcl-xL over Mcl-1 ([3]; ratio of ELISA IC50 values): 12.7 fold
IC50 [3, 13]: 7.1 µM
IC50 [6, 15]: > 100 µM
IC50 ([6]; Table 3-E structure VI, n ≥ 3, read-out: Mcl-1-Bim IC50 (average ± SEM)): > 100 µM
IC50 [6, 17]: > 100 µM
Structure (SMILES): Cn1c(Cl)c(Cl)c(-n2c(C(=O)c3ccccc3O)cc(Cl)c2Cl)c1C(=O)c1ccccc1O [VI-12]
induction of apoptosis [7]: induced apoptosis
